# Experimental data: US12161722B2, “Bifunctional heterocyclic compound having BTK degradation function via ubiquitin proteasome pathway, and use thereof” (KOREA RESEARCH INSTITUTE OF CHEMICAL TECHNOLOGY, priority 2021, dated 2024)
# How the values were obtained:
# WT BTK protein = target: T1, WT BTK protein (Homo sapiens, UniProt Q06187); experiment: BTK protein degradation assay (Western blotting), WT BTK; format: cell-based; conditions: concentration range accounting for 50% degradation of WT BTK protein, TMD-8 or RAMOS cells, 24 hours
# T1 construct: measured for intracellular BTK protein levels by Western blotting; endogenous in cells; host or cells: TMD-8 or RAMOS cells
# In short: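 TMD-8 cells (1×10^6 cells/mL) treated 24 h with compound serial dilutions, then lysed in RIPA. Equal protein loads analysed by Western blot for BTK with GAPDH/β-actin as loading controls; activity binned by concentration giving 50% WT BTK degradation.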
# C481S BTK protein = target: T2, C481S BTK protein (Homo sapiens, UniProt Q06187, C481S); experiment: BTK protein degradation assay (Western blotting), C481S BTK; format: cell-based; conditions: concentration range accounting for 50% degradation of C481S BTK protein, 293T BTK MUT (C481S) cells
# T2 construct: expressed in transfected cells; host or cells: 293T BTK MUT (C481S) cells
# In short: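 TMD-8, RAMOS or 293T BTK C481S cells were treated 24 h with compounds from 10-fold DMSO stock series (10 to 0.0001 mM). BTK was measured by Western blot with GAPDH/β-actin references. Activity was binned by concentration giving 50% degradation: +++ (0.0001-0.01 μM), ++ (0.01-1 μM), + (1-10 μM), − (>10 μM).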
# T2 sequence (Q06187 whole entry C481S): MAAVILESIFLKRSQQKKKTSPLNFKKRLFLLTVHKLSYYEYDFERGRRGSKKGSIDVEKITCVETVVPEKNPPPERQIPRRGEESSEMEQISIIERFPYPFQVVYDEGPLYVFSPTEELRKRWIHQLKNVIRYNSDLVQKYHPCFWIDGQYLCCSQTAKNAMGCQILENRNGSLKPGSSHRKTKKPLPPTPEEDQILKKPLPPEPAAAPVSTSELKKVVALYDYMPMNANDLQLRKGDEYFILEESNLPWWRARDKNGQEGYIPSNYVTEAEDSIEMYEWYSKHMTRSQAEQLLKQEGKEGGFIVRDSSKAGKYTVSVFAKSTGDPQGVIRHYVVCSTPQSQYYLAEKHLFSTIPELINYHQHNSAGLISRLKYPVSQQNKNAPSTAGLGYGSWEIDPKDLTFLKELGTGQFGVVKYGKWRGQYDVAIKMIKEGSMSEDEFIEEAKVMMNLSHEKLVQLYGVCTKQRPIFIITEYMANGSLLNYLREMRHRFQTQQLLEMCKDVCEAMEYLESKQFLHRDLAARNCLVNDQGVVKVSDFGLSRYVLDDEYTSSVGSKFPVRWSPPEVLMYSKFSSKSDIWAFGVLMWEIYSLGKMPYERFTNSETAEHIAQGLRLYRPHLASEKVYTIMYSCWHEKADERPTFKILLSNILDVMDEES
# T1 sequence (Q06187 whole entry): as the sequence (Q06187 whole entry C481S) above, with S481C counted along it
SMILES,DC50 (WT BTK protein),DC50 (C481S BTK protein)
"Cc1cccc(C)c1Nc1nn(C)c2nc(Nc3ccc4c(c3)CN(C(=O)C3CCN(C(=O)COc5ccc6nnn(C7CCC(=O)NC7=O)c(=O)c6c5)CC3)CC4)ncc12 (centres unmarked) [Compound 55, 3-(6-(2-(4-(7-((3-((2,6-Dimethylphenyl)amino)-1-methyl-1H-pyrazolo[3,4-d]pyrimidin-6-yl)amino)-1,2,3,4-tetrahydroisoquinoline-2-carbonyl)piperidin-1-yl)-2-oxoethoxy)-4-oxobenzo[d][1,2,3]triazin-3 (4H)-yl)piperidin-2,6-one]",0.1 to 10 nM,10 to 1000 nM
"Cc1cccc(C)c1Nc1nn(C)c2nc(Nc3ccc4c(c3)CN(C(=O)C3CCN(c5ccc6c(c5)C(=O)N(C5CCC(=O)NC5=O)C6=O)CC3)CC4)ncc12 (centres unmarked) [Compound 56, 5-(4-(7-((3-((2,6-Dimethylphenyl)amino)-1-methyl-1H-pyrazolo[3,4-d]pyrimidin-6-yl)amino)-1,2,3,4-tetrahydroisoquinoline-2-carbonyl)piperidin-1-yl)-2-(2,6-dioxopiperidin-3-yl)isoindoline-1,3-dione]",10 to 1000 nM,10 to 1000 nM
Cc1cccc(C)c1Nc1nn(C)c2nc(Nc3ccc4c(c3)CN(C(=O)C3CCN(C(=O)CNc5ccc6nnn(C7CCC(=O)NC7=O)c(=O)c6c5)CC3)CC4)ncc12 (centres unmarked) [Compound 57],0.1 to 10 nM,10 to 1000 nM
"Cc1cccc(C)c1Nc1nn(C)c2nc(Nc3ccc4c(c3)CN(C(=O)C3CCN(c5ccc6nnn(C7CCC(=O)NC7=O)c(=O)c6c5)CC3)CC4)ncc12 (centres unmarked) [Compound 58, 3-(6-(4-(7-((3-((2,6-Dimethylphenyl)amino)-1-methyl-1H-pyrazolo[3,4-d]pyrimidin-6-yl)amino)-1,2,3,4-tetrahydroisoquinoline-2-carbonyl)piperidin-1-yl)-4-oxobenzo[d][1,2,3]triazin-3 (4H)-yl)piperidin-2,6-one]",0.1 to 10 nM,10 to 1000 nM
Cc1cccc(C)c1Nc1nn(C)c2nc(Nc3ccc4c(c3)CN(C(=O)C3CCN(c5cccc6nnn(C7CCC(=O)NC7=O)c(=O)c56)CC3)CC4)ncc12 (centres unmarked) [Compound 59],0.1 to 10 nM,1000 to 10000 nM
"Cc1cccc(C)c1Nc1nn(C)c2nc(Nc3ccc4c(c3)CN(C(=O)C3CCN(C(=O)C5CCN(c6ccc7c(=O)n(C8CCC(=O)NC8=O)nnc7c6)CC5)CC3)CC4)ncc12 (centres unmarked) [Compound 60, 3-(7-(4-(4-(7-((3-((2,6-Dimethylphenyl)amino)-1-methyl-1H-pyrazolo[3,4-d]pyrimidin-6-yl)amino)-1,2,3,4-tetrahydroisoquinoline-2-carbonyl)piperidine-1-carbonyl)piperidin-1-yl)-4-oxobenzo[d][1,2,3]triazin-3 (4H)-yl)piperidin-2,6-one]",0.1 to 10 nM,10 to 1000 nM
"Cc1cccc(C)c1Nc1nn(C)c2nc(Nc3ccc4c(c3)CN(CC3CCN(C(=O)C5CCN(c6ccc7c(=O)n(C8CCC(=O)NC8=O)nnc7c6)CC5)CC3)CC4)ncc12 (centres unmarked) [Compound 61, 3-(7-(4-(4-((7-((3-((2,6-Dimethylphenyl)amino)-1-methyl-1H-pyrazolo[3,4-d]pyrimidin-6-yl)amino)-3,4-dihydroisoquinolin-2 (1H)-yl)methyl)piperidine-1-carbonyl)piperidin-1-yl)-4-oxobenzo[d][1,2,3]triazin-3 (4H)-yl)piperidin-2,6-one]",0.1 to 10 nM,0.1 to 10 nM
"Cc1cccc(C)c1Nc1nn(C)c2nc(Nc3ccc4c(c3)CN(CC3CCN(C(=O)C5CCN(c6cccc7nnn(C8CCC(=O)NC8=O)c(=O)c67)CC5)CC3)CC4)ncc12 (centres unmarked) [Compound 62, 3-(5-(4-(4-((7-((3-((2,6-Dimethylphenyl)amino)-1-methyl-1H-pyrazolo[3,4-d]pyrimidin-6-yl)amino)-3,4-dihydroisoquinolin-2 (1H)-yl)methyl)piperidine-1-carbonyl)piperidin-1-yl)-4-oxobenzo[d][1,2,3]triazin-3 (4H)-yl)piperidin-2,6-one]",0.1 to 10 nM,10 to 1000 nM
"Cc1cccc(C)c1Nc1nn(C)c2nc(Nc3ccc4c(c3)CN(CC3CCN(C(=O)CNc5ccc6c(=O)n(C7CCC(=O)NC7=O)nnc6c5)CC3)CC4)ncc12 (centres unmarked) [Compound 63, 3-(7-((2-(4-((7-((3-((2,6-Dimethylphenyl)amino)-1-methyl-1H-pyrazolo[3,4-d]pyrimidin-6-yl)amino)-3,4-dihydroisoquinolin-2 (1H)-yl)methyl)piperidin-1-yl)-2-oxoethyl)amino)-4-oxobenzo[d][1,2,3]triazin-3 (4H)-yl)piperidin-2,6-one]",0.1 to 10 nM,10 to 1000 nM
"Cc1cccc(Cl)c1Nc1nn(C)c2nc(Nc3ccc4c(c3)CN(CC3CCN(c5ccc6c(c5)C(=O)N(C5CCC(=O)NC5=O)C6=O)CC3)CC4)ncc12 (centres unmarked) [Compound 85, 5-(4-((7-((3-((2-Chloro-6-methylphenyl)amino)-1-methyl-1H-pyrazolo[3,4-d]pyrimidin-6-yl)amino)-3,4-dihydroisoquinolin-2 (1H)-yl)methyl)piperidin-1-yl)-2-(2,6-dioxopiperidin-3-yl)isoindoline-1,3-dione]",0.1 to 10 nM,0.1 to 10 nM
"Cc1cccc(C)c1Nc1nn(C)c2nc(Nc3ccc4c(c3)CN(C3CCN(c5ccc6c(c5)C(=O)N(C5CCC(=O)NC5=O)C6=O)CC3)CC4)ncc12 (centres unmarked) [Compound 88, 5-(4-(7-((3-((2,6-dimethylphenyl)amino)-1-methyl-1H-pyrazolo[3,4-d]pyrimidin-6-yl)amino)-3,4-dihydroisoquinolin-2 (1H)-yl)piperidin-1-yl)-2-(2,6-dioxopiperidin-3-yl)isoindoline-1,3-dione]",0.1 to 10 nM,0.1 to 10 nM
"Cc1cccc(C)c1Nc1nn(C)c2nc(Nc3ccc4c(c3)CN(C[C@H]3CCN(c5ccc6c(c5)C(=O)N(C5CCC(=O)NC5=O)C6=O)C3)CC4)ncc12 (stereo partly drawn) [Compound 144, 5-((R)-3-((7-((3-((2,6-dimethylphenyl)amino)-1-methyl-1H-pyrazolo[3,4-d]pyrimidin-6-yl)amino)-3,4-dihydroisoquinolin-2 (1H)-yl)methyl)pyrrolidin-1-yl)-2-(2,6-dioxopiperidin-3-yl)isoindoline-1,3-dione]",0.1 to 10 nM,0.1 to 10 nM
"Cc1cccc(C)c1Nc1nn(C)c2nc(Nc3ccc4c(c3)CN(C3CN(CC5CCN(c6ccc7c(c6)C(=O)N(C6CCC(=O)NC6=O)C7=O)CC5)C3)CC4)ncc12 (centres unmarked) [Compound 149, 5-(4-((3-(7-((3-((2,6-Dimethylphenyl)amino)-1-methyl-1H-pyrazolo[3,4-d]pyrimidin-6-yl)amino)-3,4-dihydroisoquinolin-2 (1H)-yl)azetidin-1-yl)methyl)piperidin-1-yl)-2-(2,6-dioxopiperidin-3-yl)isoindoline-1,3-dione]",0.1 to 10 nM,0.1 to 10 nM
